Results reported in patent US7348178B1, “Recombinant adenoviral vector system” (priority 1994, dated 2008).
Entries after “also recorded” stand apart in the source; their conditions may differ.

Columns and labels:
Assay type in all cases: cell-based, human
[1] = system: uninfected 293 cells; assay: Drug cytotoxicity in uninfected 293 cells; settings: 20 mM 2AP, 48 h posttreatment
[2] = system: wild type Ad-infected 293 cells; assay: [35S]methionine labeling, SDS-PAGE: Ad shutoff of cell protein synthesis
Protocol: FIG. 7. […] Uninfected and wild type Ad-infected 293 cells were labeled with [^35S]methionine at 24 h post infection and duplicate plates were treated with 10 mM 2AP, added 1 to 2 h after infection. Equal amounts of protein from labeled extracts were analyzed by SDS-polyacrylamide gel electrophoresis and fluorographed. Ad late polypeptides correspond to proteins II, III, IV, V, pIV, pVIII, pVI, and IX.
Cells were labeled with [^35S]methionine for 1 to 2 h by using 50 μCi of trans[^35S]methionine (ICN) per ml in DMEM lacking methionine and supplemented with 2% calf serum. Cell extracts were prepared by sonication of washed cells in 10 mM KC1-10 mM Tris (pH 7.4)−1 mM EDTA at 4° C. and cleared of debris by centrifugation at 10,000 rpm equal amounts of protein were analyzed in sodium dodecyl sulfate (SDS)-polyacrylamide gels. Gels were fluorographed and quantitated by densitometry.
293 cells were treated with 2AP for the duration of infection, starting shortly after the addition of virus. Duplicate plates of cells were then labeled with [^35S]methionine, and extracts were analyzed by SDS-polyacrylamide gel electrophoresis (FIG. 7) or photographed at various times after infection for evidence of CPE (see FIG. 5).

[3] = system: wild type Ad-infected 293 cells; assay: Ad-induced CPE in infected 293 cells, photographed; settings: wild type Ad 50 PFU per cell, 20 mM 2AP added 2 h post infection, 24 and 48 h
Protocol: FIG. 5. Prevention of adenovirus induced CPE and facilitated cell lysis or loss of metabolic function during expression of late viral genes. Cells were infected at 50 PFU per cell with wild type Ad, and 20 mM 2-aminopurine (2AP) was added to duplicate plates 2 h post infection for up to 48 h. Cells were photographed at 24 and 48 h. […] Late Ad polypeptides can therefore be expressed in this system for the duration of several days without facilitating cell lysis and CPE that would limit their expression.
Ad 300 is a wild type strain 5 isolate (H5wl300) originally purified by H. Ginsberg is available through the ATCC. Ad2 ts1 is described in Chen et al., 1993, J. Virol. 67:3507-3514. 293 cells are human embryonic kidney cell line that express the E1 region of Ad5 (Graham et al., 1977, J. Gen. Virol. 36:59-72). 293 and HeLa cells were cultured in Dulbecco's modified Eagle's medium (DMEM) containing 10% calf serum. Virus stocks were grown and titers were determined on 293 cells. RD (human rhabdosarcoma) cells were obtained from the American Type Culture Collection and grown in DMEM containing 15% fetal bovine serum. 2AP was prepared and used as previously described (Huang & Schneider, 1990, PNAS USA 87:7115-7119). Infections of cells with viruses were typically carried out for 1 h with 50 PFU per cell unless otherwise noted. […]

[4] = system: cytokeratin network of 293 cells infected with Ad2 ts1; assay: Indirect immunofluorescence of keratin K18 network in Ad2 ts1-infected 293 cells; settings: Ad ts1 infection at 39.5° C. plus 2AP, fixed 22 h post infection
Protocol: FIG. 6. […] 293 cells were infected with Ad2 ts1 at 4,000 particles per cell, a 25 plaque forming unit (PFU) per cell equivalent, given the high particle/PFU ratio for this mutant, in the presence or absence of 2AP at 32° C. or 39.5° C. […] Cells were fixed and processed for indirect immunofluorescence, using a keratin K18-specific antibody. Cells infected at 32° C. were fixed at 40 h post infection, cells infected at 39.5° C. were fixed at 22 h post infection. By preventing Ad viral proteolysis of keratin K18, viral induced CPE and early cell lysis can be controlled.
Cells were grown on coverslips, fixed with paraformaldehyde, and permeabilized with Triton X-100. Mouse monoclonal antibodies directed against vimentin were purchased from Boehringer Mannheim Biochemicals. A mouse monoclonal antibody specific for keratins K18 (KS-B17.2) and K1, 5 to 8, 10, 11, and 18 (no. 8.13) were from Sigma Chemical Co. Fluorescein isothiocyanate-conjugated rabbit anti-mouse antibodies were purchased from Sigma. Cells were photographed under visible or ultraviolet light using a Zeiss photomicroscope.
Experiments were performed to test whether coupled shutoff of host protein synthesis and cleavage of cytokeratins truly correlates with development of CPE. […] Cells were infected with […] at permissive (32° C.) and restrictive (39.5° C.) temperatures. […]

In the case of `Nc1ncc2[nH]cnc2n1` [2AP, 2-aminopurine], the cytotoxicity [1] is reported as “little detectable cytotoxicity”, the “shutoff of cell protein synthesis / translation” value ([2]; 10 mM 2AP added 1 to 2 h after infection, labeled 24 h post infection) is reported as “prevents the shutoff of translation of cellular and early Ad mRNAs; also recorded: prevent Ad shutoff of cell protein synthesis” and the “levels of cellular polypeptide synthesis and of Ad mRNAs lacking the tripartite leader” value ([2]; 2AP-treated infected 293 cells) is reported as “significantly elevated”. The “Ad-induced CPE” value [3] was “largely prevented detectable CPE; also recorded: significantly reduced cytopathic effect; also recorded: only slight CPE” and the keratin network integrity [4] was “remarkably well preserved”.
